Patent US20080175903A1, “Treatment of anxiety with eszopiclone” (Sepracor Inc., priority 2006, published 2008)
Where two headings read alike, the source gives them in different places.

Key:
rhesus monkeys [1] = conditions: previously published in Rowlett et al., 2006; cited from earlier work
[2] = tested on: healthy adult male human subjects; assay: EEG study (quantitative wake EEG) of single doses of eszopiclone versus placebo; assay type: in vivo
Protocol: A study was conducted to evaluate the pharmacodynamic (quantitative wake electroencephalogram (qEEG) and auditory P300 (evoked potentials (EPs)) of four doses of eszopiclone, relative to placebo, in healthy adult male human subjects. The study was single-blind, placebo-controlled, ascending, single dose. Subjects received single doses of immediate release formulations that contained 0.3 mg of eszopiclone, 0.6 mg of eszopiclone, 0.9 mg of eszopiclone or 2.0 mg of eszopiclone.
Changes in beta EEG activity are interpreted as indicating an anxiolytic effect (Ansseau et al, Neuropsychobiology 1984, 12(4):255-9; Buchsbaum et al, Biol. Psychiatry, 1985, 20(8):832-42; Macher et al, Human psychopharmacology, 1990 (eds I Hindmarch and P D Stonier), Vol 3, 10-2; Mandema and Danhof, Clin Pharmacokinet, 1992, 23(3):191-215.
In this study, statistical EEG maps were obtained comparing EEG power values for each dose of eszopiclone versus placebo. […] The dose effect is further illustrated in the graphically depicted results of FIG. 4 which follows.
Classically, delta activity in pharmaco-EEG indicates a sedative effect of the drug under study. Delta EEG activity is clearly modified when the sedative drug effect has reached a high threshold.
Conclusions regarding a possible sedative effect or a trend to impair the subject's arousal should also include analyses of a drug's effects on alpha EEG activity, which reflect decreases in subject's arousal (pro sedative effect).

[3] = target: T1, α5-containing GABAA receptors (human α5, β3, γ2L) (Homo sapiens, UniProt P18507+P31644); assay: Potentiation of GABA evoked currents, recombinant GABA-A receptors in Xenopus oocytes, two-electrode voltage clamp; assay type: cell-based
T1 construct: expressed in transfected cells; host or cells: Xenopus oocytes (cDNA injected, alpha:beta:gamma 1:1:3)
T1 sequence (P31644 32-462): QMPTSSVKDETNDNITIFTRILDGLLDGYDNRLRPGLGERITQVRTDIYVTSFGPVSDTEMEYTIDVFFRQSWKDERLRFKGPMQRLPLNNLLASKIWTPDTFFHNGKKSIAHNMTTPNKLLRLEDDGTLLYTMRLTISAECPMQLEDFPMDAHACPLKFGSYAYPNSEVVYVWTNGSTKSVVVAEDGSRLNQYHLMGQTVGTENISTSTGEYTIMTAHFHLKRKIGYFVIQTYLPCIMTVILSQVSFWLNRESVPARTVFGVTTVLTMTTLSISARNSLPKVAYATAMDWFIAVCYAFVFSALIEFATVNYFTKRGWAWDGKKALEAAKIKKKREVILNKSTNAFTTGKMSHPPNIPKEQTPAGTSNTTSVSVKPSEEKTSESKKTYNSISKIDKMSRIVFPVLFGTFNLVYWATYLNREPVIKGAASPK
T1 sequence (P28472 26-473 partner): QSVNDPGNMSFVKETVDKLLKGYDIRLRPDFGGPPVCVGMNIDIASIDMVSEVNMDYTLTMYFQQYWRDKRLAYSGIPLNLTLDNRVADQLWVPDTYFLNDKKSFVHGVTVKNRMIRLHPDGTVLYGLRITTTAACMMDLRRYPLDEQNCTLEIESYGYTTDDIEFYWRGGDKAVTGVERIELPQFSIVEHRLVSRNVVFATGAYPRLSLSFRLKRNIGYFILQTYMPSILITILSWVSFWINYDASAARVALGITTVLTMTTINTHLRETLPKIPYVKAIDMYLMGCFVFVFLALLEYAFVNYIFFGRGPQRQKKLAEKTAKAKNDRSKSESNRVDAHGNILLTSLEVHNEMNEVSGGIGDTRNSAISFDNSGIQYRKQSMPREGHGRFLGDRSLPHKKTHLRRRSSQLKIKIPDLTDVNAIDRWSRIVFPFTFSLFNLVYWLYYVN
T1 sequence (P18507 40-475): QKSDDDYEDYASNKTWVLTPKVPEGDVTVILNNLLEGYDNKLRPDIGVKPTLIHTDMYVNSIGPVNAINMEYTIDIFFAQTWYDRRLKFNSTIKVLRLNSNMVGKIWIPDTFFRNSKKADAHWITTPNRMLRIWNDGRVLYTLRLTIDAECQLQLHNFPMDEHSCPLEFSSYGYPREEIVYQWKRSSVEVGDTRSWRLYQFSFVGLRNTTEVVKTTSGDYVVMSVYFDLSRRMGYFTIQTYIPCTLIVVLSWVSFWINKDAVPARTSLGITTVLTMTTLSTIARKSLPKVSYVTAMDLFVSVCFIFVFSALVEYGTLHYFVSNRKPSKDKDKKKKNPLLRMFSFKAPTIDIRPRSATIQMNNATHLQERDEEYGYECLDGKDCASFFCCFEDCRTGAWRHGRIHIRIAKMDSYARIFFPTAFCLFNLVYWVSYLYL
Protocol: (§1) FIG. 2 is a plot showing the concentration-dependent potentiation of GABA evoked currents by (S)-zopiclone. For all experiments, human cDNA encoding each subunit was injected in oocytes in a stoichiometry of 1:1:3 (alpha, beta, gamma subunits). Approximately 24 hours later, GABA evoked currents (using a concentration of GABA equal to the EC10) were recorded from oocytes using a two-electrode voltage clamp on a robotic oocyte platform and a constant voltage of −80 mV. GABA was applied to the oocytes via a perfusion system for 20 seconds and then removed. An inward deflection of the current trace was recorded and subsequently compared to the responses resulting from applying the same concentration of GABA plus varying concentrations of the test compound ((S)-zopiclone). A doubling of the GABA evoked current is represented as a potentiation ratio of 1.0.
(§2) The GABA-A receptor is gated by GABA, and ligands at the benzodiazepine site potentiate GABA-evoked currents. It is well-established in the scientific literature that classical benzodiazepines potentiate GABA evoked chloride currents through GABA-A receptors. The efficacies of classical benzodiazepines can be described as “full modulators” referring to their ability to increase the chloride currents induced by sub-maximal GABA concentrations. The action of (S)-zopiclone on GABA-A receptors was evaluated by examining their effects on electrophysiological recordings in a recombinant expression system.
(§3) Recombinant GABA-A receptors were expressed in Xenopus oocytes by injecting cDNA encoding the human β3, γ2L, and each of α1, α2, α3, or α5 subunits in turn to assemble functional channels. Channel activity was measured using two-electrode voltage clamp in whole cell configuration on a robotic workstation. […] The potentiation ratio was then measured as the fold-increase in current generated by a (S)-zopiclone plus an EC10 of GABA, compared to the current generated by just the EC10 of GABA alone. These potentiation ratios were measured at a range of (S)-zopiclone concentrations to generate a subsequent concentration response curve at each of the subtypes using between 2 and 7 oocytes. […]
(§4) For all experiments, human cDNA encoding each subunit was injected in oocytes in a stoichiometry of 1:1:3 (alpha, beta, gamma subunits). Approximately 24 hours later, GABA evoked currents (using a concentration of GABA equal to the EC10) were recorded from oocytes using a two-electrode voltage clamp on a robotic oocyte platform and a constant voltage of −80 mV. […] An inward deflection of the current trace was recorded and subsequently compared to the responses resulting from applying the same concentration of GABA plus varying concentrations of the test compound [(S)-zopiclone]. […]

[4] = target: T2, α2-containing GABAA receptors (human α2, β3, γ2L) (Homo sapiens, UniProt P18507+P47869); assay: as above; assay type: cell-based
T2 construct: expressed in transfected cells; host or cells: Xenopus oocytes (cDNA injected, alpha:beta:gamma 1:1:3)
T2 sequence (P47869 29-451): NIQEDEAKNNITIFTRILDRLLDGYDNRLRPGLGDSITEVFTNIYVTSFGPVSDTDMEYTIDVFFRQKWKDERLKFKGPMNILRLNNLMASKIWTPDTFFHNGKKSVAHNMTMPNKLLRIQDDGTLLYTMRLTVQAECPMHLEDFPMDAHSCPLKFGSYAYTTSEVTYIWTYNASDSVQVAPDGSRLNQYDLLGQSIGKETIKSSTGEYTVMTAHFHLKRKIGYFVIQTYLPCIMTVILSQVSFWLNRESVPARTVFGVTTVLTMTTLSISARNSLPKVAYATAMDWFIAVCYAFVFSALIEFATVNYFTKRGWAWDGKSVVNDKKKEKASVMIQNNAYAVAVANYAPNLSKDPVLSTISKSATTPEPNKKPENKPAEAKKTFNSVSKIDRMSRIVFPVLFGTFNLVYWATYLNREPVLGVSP
T2 sequence (P28472 26-473 partner): as the sequence (P28472 26-473 partner) above
T2 sequence (P18507 40-475): as the sequence (P18507 40-475) above
Protocol: as §1, §2, §3, §4

[5] = target: T3, α1-containing GABAA receptors (human α1, β3, γ2L) (Homo sapiens, UniProt P14867+P18507); assay: as above; assay type: cell-based
T3 construct: expressed in transfected cells; host or cells: Xenopus oocytes (cDNA injected, alpha:beta:gamma 1:1:3)
T3 sequence (P14867 28-456): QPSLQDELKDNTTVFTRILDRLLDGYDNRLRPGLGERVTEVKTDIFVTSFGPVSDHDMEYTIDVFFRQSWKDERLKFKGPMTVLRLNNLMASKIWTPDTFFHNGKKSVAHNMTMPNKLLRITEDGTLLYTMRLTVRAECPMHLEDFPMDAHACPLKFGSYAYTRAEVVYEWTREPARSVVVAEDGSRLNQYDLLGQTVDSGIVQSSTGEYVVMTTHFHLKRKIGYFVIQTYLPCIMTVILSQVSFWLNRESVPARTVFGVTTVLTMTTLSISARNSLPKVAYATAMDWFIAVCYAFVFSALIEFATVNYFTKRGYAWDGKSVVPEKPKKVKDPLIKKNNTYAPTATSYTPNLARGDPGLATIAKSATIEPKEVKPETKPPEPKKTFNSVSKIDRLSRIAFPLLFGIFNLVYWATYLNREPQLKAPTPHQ
T3 sequence (P28472 26-473 partner): as the sequence (P28472 26-473 partner) above
T3 sequence (P18507 40-475): as the sequence (P18507 40-475) above
Protocol: as §1, §2, §3, §4

[6] = target: T4, α3-containing GABAA receptors (human α3, β3, γ2L) (Homo sapiens, UniProt P18507+P34903); assay: as above; assay type: cell-based
T4 construct: expressed in transfected cells; host or cells: Xenopus oocytes (cDNA injected, alpha:beta:gamma 1:1:3)
T4 sequence (P34903 29-492): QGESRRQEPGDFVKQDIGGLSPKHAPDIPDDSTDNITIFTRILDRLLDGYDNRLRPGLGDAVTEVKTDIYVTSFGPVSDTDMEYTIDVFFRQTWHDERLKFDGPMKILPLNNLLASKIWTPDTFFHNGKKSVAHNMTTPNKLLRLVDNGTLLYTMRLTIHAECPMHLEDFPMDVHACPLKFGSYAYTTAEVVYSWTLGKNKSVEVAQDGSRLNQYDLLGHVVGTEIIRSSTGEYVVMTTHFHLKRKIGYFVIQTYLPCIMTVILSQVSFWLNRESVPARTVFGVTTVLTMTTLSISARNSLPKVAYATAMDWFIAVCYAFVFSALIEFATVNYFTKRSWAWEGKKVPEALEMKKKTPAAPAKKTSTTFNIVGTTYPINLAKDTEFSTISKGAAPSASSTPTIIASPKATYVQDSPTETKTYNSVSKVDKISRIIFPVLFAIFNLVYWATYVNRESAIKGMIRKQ
T4 sequence (P28472 26-473 partner): as the sequence (P28472 26-473 partner) above
T4 sequence (P18507 40-475): as the sequence (P18507 40-475) above
Protocol: as §1, §2, §3, §4

[7] = Clinical study of eszopiclone in healthy volunteers: plasma concentration-time profiles after oral administration; assay type: in vivo, human; conditions: post-dose
Protocol: FIG. 1 is a plot of mean (S)-zopiclone plasma concentration-time profiles following oral administration of (S)-zopiclone.
A clinical study of eszopiclone in healthy volunteers was performed using art-recognized methodology.

rhesus monkeys [8] = assay: Rhesus monkey conflict procedure (suppressed and non-suppressed responding); assay type: in vivo; conditions: for ED50: Macaca mulatta, iv, rhesus monkeys; for Estimated anxiolytic dose / expected human oral dose: minimum recommended dose of diazepam 2 mg
Protocol: FIG. 3 is a plot of rates of non-suppressed and suppressed responding by rhesus monkeys trained in a conflict procedure. Monkeys were injected i.v. with cumulative doses of (S)-zopiclone. Data are mean±S.E.M. for N=4 monkeys. Points above “V” represent data following drug vehicle administration. Note that *P<0.05 vs. V (control). Experimental methodology was identical to that described by Rowlett J K et al. (2006).
“Conflict Procedure,” as used herein refers to the rhesus monkey conflict procedure reported by Rowlett et al. (Psychopharmacology (2006) 184:201-211). Antianxiety dosage determination in rhesus monkeys using the procedure set forth by Rowlett et al. is correlative with antianxiety dosages in humans. The conflict procedure is a method of determining the parameters correlating a clinically determinable effect of eszopiclone in rhesus monkeys with analogous effects in a human subject. The results of conflict procedures in rhesus monkeys are closely correlated with dosages of agents providing anxiolysis in humans. Accordingly, the conflict procedure is a method of determining whether a dosage of eszopiclone provides clinically determinable treatment or prophylaxis of anxiety in humans.
Conflict procedures in animals are used to study mechanisms underlying the anxiolytic effects of benzodiazepines (Rowlett J K et al., Psychopharmacology (2006) 184:201-211). […] The effects of each benzodiazepine in rhesus conflict procedure is to increase suppressed responding at doses lower than the doses that ultimately decrease rates of non-suppressed responding. This characteristic profile in the rhesus conflict procedure contrasts dramatically with the effects of non-benzodiazepine hypnotics zolpidem and zaleplon, and also contrasts to the effects of GABA-A ligands with subtype efficacies different from classical benzodiazepines, such as flumazenil and CL218,872 (Rowlett J K et al., 2006).
This correlation was used to estimate the therapeutic dose in humans for anxiolytic effects. The ED50 of the suppressed responding in FIG. 3 is 0.07 mg/kg i.v., indicating a 50% anxiolytic effect at that dose i.v. in the rhesus procedure. Using this ED50 in the regression analysis of Rowlett J K et al. (2006), an expected human oral dose of 0.9 mg is obtained. This dose is below the hypnotic doses (i.e., it is subsedative) used clinically in humans (1, 2, and 3 mg), further supporting the validity of the correspondence between the efficacy profiles of classical benzodiazepines and (S)-zopiclone.
The potencies of eszopiclone to alter suppressed and non-suppressed responding were estimated by calculating the dose that engendered 5% to 95% of the maximum effect (EDx, where x=5-95%). The EDx for suppressed responding was obtained by dividing rates of suppressed responding for individual monkeys by the average maximum increase in response rate (i.e., the peak effect) and multiplying the value by 100. Doses on the ascending limb of the dose-response function were used to calculate the EDx by log-linear regression analysis. The EDx for non-suppressed responding was obtained by dividing rates of non-suppressed responding for individual monkeys by the average maximum decrease in response rate (this corresponded to the highest dose tested) and multiplying by 100. The EDx values for non-suppressed responding were calculated by log-linear regression analysis. All potencies were expressed as the mean±SEM for n=4 monkeys.
A linear relationship between relative potency to induce clinical effects in humans and relative potency to increase suppressed responding or decrease non-suppressed responding in monkeys has been determined previously for 10 standard benzodiazepines (Rowlett et al., 2006). […]

[9] = log10 of predicted potency relative to diazepam in humans
[10] = predicted potency relative to diazepam in humans
[11] = relative potency in the monkey conflict procedure

## CN1C(=O)CN=C(c2ccccc2)c2cc(Cl)ccc21 [Diazepam, diazepam]
Rhesus monkeys [1]
  ED50, non-suppressed responding: 1.65 mg/kg
  ED50, suppressed responding: 0.11 mg/kg

## CN1CCN(C(=O)O[C@H]2c3nccnc3C(=O)N2c2ccc(Cl)cn2)CC1 [Eszopiclone, (+)-(5S)-6-(chloropyridin-2-yl)-7-oxo-6,7-dihydro-5H-pyrrolo[3,4-b]pyrazin-5-yl 4-methyl-piperazine-1-carboxylate]
[2]; doses below 2.0 mg
  Alpha EEG activity (arousal), change from placebo: did not exhibit major effects on arousal
[2]; highest dose (2.0 mg)
  Alpha EEG activity (arousal), change from placebo: induces a significant impairment in the subject's arousal and possibly a sedative effect
  Delta EEG activity (sedative effect), change from placebo: induces a significant sedative effect
[2]; other doses (0.3, 0.6, 0.9 mg)
  Delta EEG activity (sedative effect), change from placebo: do not have this side effect
[3]
  EC50: 40 nM
[4]
  EC50: 100 nM
[5]
  EC50: 30 nM
[6]
  EC50: 250 nM
[7]; fasted conditions
  time of maximum mean (S)-zopiclone plasma concentrations: 0.5 to 1.5 h
[7]; fed conditions
  time of maximum mean (S)-zopiclone plasma concentrations: 2 to 3 h
Rhesus monkeys [8]; read-out: ED50, non-suppressed responding
  ED50: 0.74 mg/kg
Rhesus monkeys [8]; read-out: ED50, suppressed responding
  ED50: 0.07 mg/kg
Rhesus monkeys [8]; human, regression of Rowlett et al. (2006), listed as (S)-zopiclone
  Estimated anxiolytic dose / expected human oral dose: 0.9 mg
Rhesus monkeys [8]; human, regression of Rowlett et al. (2006), listed as eszopiclone
  Estimated anxiolytic dose / expected human oral dose: Estimated anxiolytic dose for eszopiclone = 0.9 mg
Rhesus monkeys [8]; human, regression of Rowlett et al. (2006), maximum recommended dose of diazepam 10 mg
  Estimated sedative dose: Estimated sedative dose for eszopiclone = 3.4 mg
Rhesus monkeys [8]; [9]
  Y = 0.583x − 0.175, Y (eszopiclone relative potency), non-suppressed responding: −0.47
  Y = 0.672x − 0.174, Y (eszopiclone relative potency), suppressed responding: −0.34
Rhesus monkeys [8]; [10]
  10^Y, non-suppressed responding: 0.34
  10^Y, suppressed responding: 0.46
Rhesus monkeys [8]; [11]
  Ratio (eszopiclone ED50 / diazepam ED50), non-suppressed responding: 0.31
  Ratio (eszopiclone ED50 / diazepam ED50), suppressed responding: 0.64
Rhesus monkeys [8]; rhesus monkey, in vivo
  Log10(Ratio), non-suppressed responding: −0.51
  Log10(Ratio), suppressed responding: −0.19
Rhesus monkeys [8]; x = 5 % maximum increase, N = 4 monkeys
  ED5 to increase rates of suppressed responding (mean): 0.029 mg/kg, i.v.
Rhesus monkeys [8]; x = 10 % maximum increase, N = 4 monkeys
  ED10 to increase rates of suppressed responding (mean): 0.032 mg/kg, i.v.
Rhesus monkeys [8]; x = 15 % maximum increase, N = 4 monkeys
  ED15 to increase rates of suppressed responding (mean): 0.036 mg/kg, i.v.
Rhesus monkeys [8]; x = 20 % maximum increase, N = 4 monkeys
  ED20 to increase rates of suppressed responding (mean): 0.040 mg/kg, i.v.
Rhesus monkeys [8]; x = 25 % maximum increase, N = 4 monkeys
  ED25 to increase rates of suppressed responding (mean): 0.044 mg/kg, i.v.
Rhesus monkeys [8]; x = 30 % maximum increase, N = 4 monkeys
  ED30 to increase rates of suppressed responding (mean): 0.048 mg/kg, i.v.
Rhesus monkeys [8]; x = 35 % maximum increase, N = 4 monkeys
  ED35 to increase rates of suppressed responding (mean): 0.054 mg/kg, i.v.
Rhesus monkeys [8]; x = 40 % maximum increase, N = 4 monkeys
  ED40 to increase rates of suppressed responding (mean): 0.059 mg/kg, i.v.
Rhesus monkeys [8]; x = 45 % maximum increase, N = 4 monkeys
  ED45 to increase rates of suppressed responding (mean): 0.066 mg/kg, i.v.
Rhesus monkeys [8]; x = 50 % maximum increase, N = 4 monkeys
  ED50 to increase rates of suppressed responding (mean): 0.073 mg/kg, i.v.
Rhesus monkeys [8]; x = 55 % maximum increase, N = 4 monkeys
  ED55 to increase rates of suppressed responding (mean): 0.081 mg/kg, i.v.
Rhesus monkeys [8]; x = 60 % maximum increase, N = 4 monkeys
  ED60 to increase rates of suppressed responding (mean): 0.090 mg/kg, i.v.
Rhesus monkeys [8]; x = 65 % maximum increase, N = 4 monkeys
  ED65 to increase rates of suppressed responding (mean): 0.100 mg/kg, i.v.
Rhesus monkeys [8]; x = 70 % maximum increase, N = 4 monkeys
  ED70 to increase rates of suppressed responding (mean): 0.110 mg/kg, i.v.
Rhesus monkeys [8]; x = 75 % maximum increase, N = 4 monkeys
  ED75 to increase rates of suppressed responding (mean): 0.123 mg/kg, i.v.
Rhesus monkeys [8]; x = 80 % maximum increase, N = 4 monkeys
  ED80 to increase rates of suppressed responding (mean): 0.136 mg/kg, i.v.
Rhesus monkeys [8]; x = 85 % maximum increase, N = 4 monkeys
  ED85 to increase rates of suppressed responding (mean): 0.151 mg/kg, i.v.
Rhesus monkeys [8]; x = 90 % maximum increase, N = 4 monkeys
  ED90 to increase rates of suppressed responding (mean): 0.168 mg/kg, i.v.
Rhesus monkeys [8]; x = 95 % maximum increase, N = 4 monkeys
  ED95 to increase rates of suppressed responding (mean): 0.186 mg/kg, i.v.
